According to PubChem BioAssay AID248 (DTP/NCI, 2004):
Toxic doses and inconclusive results are not listed. Cut-off read from the data, not from the text of the source: active = T/C of 150% or more; inactive = T/C below 125%.

Tested on: L1210 leukemia ip in BDF1 mice, survival T/C
Assay: NCI In Vivo Anticancer Drug Screen. Data for tumor model L1210 Leukemia (intraperitoneal) in B6D2F1 (BDF1) mice
Details: endpoint: mean survival time, higher = longer survival
Outline: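 Tumor was transplanted into mice, which were then dosed with test compound or vehicle alone. Survival was recorded for each group, and the treated figure was expressed relative to the control figure.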

[1] = dose: 100.0 mg/kg/injection, schedule: Q04DX003 (ip), vehicle: saline
[2] = dose: 200.0 mg/kg/injection, schedule: Q04DX003 (ip), vehicle: saline
[3] = dose: 400.0 mg/kg/injection, schedule: Q04DX003 (ip), vehicle: saline
[4] = dose: 100.0 mg/kg/injection, schedule: Q01DX001 (ip), vehicle: carboxymethylcellulose (CMC)
[5] = dose: 200.0 mg/kg/injection, schedule: Q01DX001 (ip), vehicle: carboxymethylcellulose (CMC)
[6] = dose: 100.0 mg/kg/injection, schedule: Q01DX001 (ip), vehicle: other
[7] = dose: 200.0 mg/kg/injection, schedule: Q01DX001 (ip), vehicle: other
[8] = dose: 400.0 mg/kg/injection, schedule: Q01DX001 (ip), vehicle: other
[9] = dose: 50.0 mg/kg/injection, schedule: Q01DX009 (ip), vehicle: Klucel (hydroxypropylcellulose) (HPC)
[10] = dose: 100.0 mg/kg/injection, schedule: Q01DX009 (ip), vehicle: Klucel (hydroxypropylcellulose) (HPC)
[11] = dose: 200.0 mg/kg/injection, schedule: Q01DX009 (ip), vehicle: Klucel (hydroxypropylcellulose) (HPC)
[12] = dose: 75.0 mg/kg/injection, schedule: Q01DX001 (ip), vehicle: carboxymethylcellulose (CMC)
[13] = dose: 400.0 mg/kg/injection, schedule: Q01DX009 (ip), vehicle: Klucel (hydroxypropylcellulose) (HPC)
[14] = dose: 100.0 mg/kg/injection, schedule: Q04DX003 (ip), vehicle: Klucel (hydroxypropylcellulose) (HPC)
[15] = dose: 200.0 mg/kg/injection, schedule: Q04DX003 (ip), vehicle: Klucel (hydroxypropylcellulose) (HPC)
[16] = dose: 400.0 mg/kg/injection, schedule: Q04DX003 (ip), vehicle: Klucel (hydroxypropylcellulose) (HPC)
[17] = dose: 100.0 mg/kg/injection, schedule: Q01DX009 (ip), vehicle: saline with Tween-80
[18] = dose: 200.0 mg/kg/injection, schedule: Q01DX009 (ip), vehicle: saline with Tween-80
[19] = dose: 100.0 mg/kg/injection, schedule: Q04DX002 (ip), vehicle: Klucel (hydroxypropylcellulose) (HPC)
[20] = dose: 200.0 mg/kg/injection, schedule: Q04DX002 (ip), vehicle: Klucel (hydroxypropylcellulose) (HPC)
[21] = dose: 400.0 mg/kg/injection, schedule: Q04DX002 (ip), vehicle: Klucel (hydroxypropylcellulose) (HPC)

Measured: T/C

Nn1cnc2c(ncn2C2OC(CO)C(O)C2O)c1=O (centres undefined)
inactive: dose: 100.0 mg/kg/injection, schedule: Q01DX005 (ip), vehicle: saline 88 % of control | dose: 200.0 mg/kg/injection, schedule: Q01DX005 (ip), vehicle: saline 100 % of control

O=C(O)c1cc(O)c(Br)c(O)c1
inactive: dose: 75.0 mg/kg/injection, schedule: Q01DX009 (ip), vehicle: other 93 % of control | [1] 106 % of control | dose: 150.0 mg/kg/injection, schedule: Q01DX009 (ip), vehicle: other 96 % of control | [2] 101 % of control | [3] 95 % of control

COC(=O)c1ccc(N(C)CC/C(CN)=N/NC(N)=O)cc1
inactive: [4] 96 % of control | [5] 96 % of control | dose: 400.0 mg/kg/injection, schedule: Q01DX001 (ip), vehicle: carboxymethylcellulose (CMC) 102 % of control

CCOCCCCO
inactive: dose: 100.0 mg/kg/injection, schedule: Q01DX009 (ip), vehicle: saline 96 % of control | dose: 200.0 mg/kg/injection, schedule: Q01DX009 (ip), vehicle: saline 92 % of control | dose: 400.0 mg/kg/injection, schedule: Q01DX009 (ip), vehicle: saline 94 % of control

Nc1nc(N)nc(CCCCCCc2nc(N)nc(N)n2)n1
inactive: dose: 50.0 mg/kg/injection, schedule: Q01DX001 (ip), vehicle: carboxymethylcellulose (CMC) 88 % of control | [4] 88 % of control | [5] 98 % of control

CCCCCCCCCC=C(c1cccc2ccccc12)c1cccc2ccccc12
inactive: [6] 93 % of control | [7] 96 % of control | [8] 102 % of control

O=C(O)C1C2CC3OCC1C3C2 (centres undefined)
inactive: dose: 100.0 mg/kg/injection, schedule: Q04DX003 (ip), vehicle: alkali diluted with saline 104 % of control | dose: 200.0 mg/kg/injection, schedule: Q04DX003 (ip), vehicle: alkali diluted with saline 98 % of control | dose: 400.0 mg/kg/injection, schedule: Q04DX003 (ip), vehicle: alkali diluted with saline 93 % of control

CN(/N=N/c1nc[nH]c1C(=O)N/N=C/c1ccc(N(CCCl)CCCl)cc1)C1CCCCC1
inactive: [6] 95 % of control | [7] 95 % of control | [8] 90 % of control

COc1ccc([N+](=O)[O-])cc1NC(=O)Oc1ccc(SC)cc1
inactive: [9] 111 % of control | [10] 92 % of control | [11] 100 % of control

COC(=O)NCc1nc2cc3c[nH][nH]c3cc2n1
inactive: [12] 91 % of control

O=C(Nc1ccccc1F)OCCOc1ccc(-c2ccccc2)cc1
inactive: [10] 96 % of control | [11] 95 % of control | [13] 98 % of control

CCCCCCCCCCCCCCCCCC(N)=O
inactive: [10] 87 % of control | [14] 102 % of control | [11] 87 % of control | [15] 95 % of control | [13] 117 % of control | [16] 96 % of control

C[Si](C)(C)c1cc(F)c(F)c(F)c1F
inactive: [10] 100 % of control | [14] 97 % of control | [11] 102 % of control | [15] 102 % of control | [13] 98 % of control | [16] 103 % of control

CCOc1ccc(/C=N/NS(=O)(=O)c2ccccc2)cc1OC
inactive: [17] 94 % of control | dose: 100.0 mg/kg/injection, schedule: Q04DX003 (ip), vehicle: saline sonified 107 % of control | [18] 98 % of control | dose: 200.0 mg/kg/injection, schedule: Q04DX003 (ip), vehicle: saline sonified 86 % of control | dose: 400.0 mg/kg/injection, schedule: Q01DX009 (ip), vehicle: saline with Tween-80 89 % of control | dose: 400.0 mg/kg/injection, schedule: Q04DX003 (ip), vehicle: saline sonified 98 % of control

O=C(O)C1Nc2ccccc2NC1=O (centres undefined)
inactive: dose: 100.0 mg/kg/injection, schedule: Q01DX001 (ip), vehicle: Klucel (hydroxypropylcellulose) (HPC) 100 % of control | dose: 200.0 mg/kg/injection, schedule: Q01DX001 (ip), vehicle: Klucel (hydroxypropylcellulose) (HPC) 94 % of control | dose: 400.0 mg/kg/injection, schedule: Q01DX001 (ip), vehicle: Klucel (hydroxypropylcellulose) (HPC) 106 % of control

CC(=O)Nc1ccc[n+](Cc2ccc(S(=O)(=O)F)cc2)c1
inactive: dose: 25.0 mg/kg/injection, schedule: Q04DX003 (ip), vehicle: Klucel (hydroxypropylcellulose) (HPC) 104 % of control | dose: 50.0 mg/kg/injection, schedule: Q04DX003 (ip), vehicle: Klucel (hydroxypropylcellulose) (HPC) 104 % of control

C1SCSCS1
inactive: [19] 104 % of control | [20] 96 % of control | [21] 93 % of control

CC(=O)NC1=C(Oc2ccc(C)cc2)C(=O)c2ccccc2C1=O
inactive: dose: 75.0 mg/kg/injection, schedule: Q01DX001 (ip), vehicle: saline 98 % of control | dose: 150.0 mg/kg/injection, schedule: Q01DX001 (ip), vehicle: saline 96 % of control

N/C(=N\[N+](=O)[O-])Nc1nc2ccccc2s1
inactive: [19] 113 % of control

CCOC(=O)C(CNc1cccc2ccncc12)C(=O)OCC
inactive: dose: 50.0 mg/kg/injection, schedule: Q01DX009 (ip), vehicle: saline with Tween-80 109 % of control | [17] 94 % of control | [18] 115 % of control

CC(=O)NN(N=O)C(C)c1ccccc1 (centres undefined)
inactive: [19] 108 % of control | [20] 105 % of control

CC1C=CC(c2ccccc2)C2C(=O)OC(=O)C12 (centres undefined)
inactive: [9] 111 % of control | [10] 101 % of control

CCCCC(CCCC)NC(C)COC(=O)c1ccc(N)cc1 (centres undefined)
inactive: [12] 104 % of control | dose: 150.0 mg/kg/injection, schedule: Q01DX001 (ip), vehicle: carboxymethylcellulose (CMC) 100 % of control | dose: 300.0 mg/kg/injection, schedule: Q01DX001 (ip), vehicle: carboxymethylcellulose (CMC) 101 % of control

C[CH2][Pb]([CH2]C)([CH2]C)[n]1ccnc1
inactive: [19] 95 % of control | [20] 95 % of control | [21] 100 % of control

c1ccc(C(c2ccccc2)c2ccc(C(c3ccccc3)(c3ccccc3)c3ccccc3)cc2)cc1
inactive: dose: 87.5 mg/kg/injection, schedule: Q04DX003 (ip), vehicle: Klucel (hydroxypropylcellulose) (HPC) 88 % of control

CN(C)c1ccc(/C=C2\C=Cc3ccccc32)c(F)c1
inactive: [10] 98 % of control | [14] 96 % of control | [11] 101 % of control | [15] 93 % of control | [13] 92 % of control | [16] 96 % of control

CC(C)=CC=O
inactive: dose: 100.0 mg/kg/injection, schedule: Q01DX009 (ip), vehicle: saline sonified 97 % of control | [1] 96 % of control | dose: 200.0 mg/kg/injection, schedule: Q01DX009 (ip), vehicle: saline sonified 100 % of control | [2] 97 % of control | [3] 103 % of control

COC(=O)c1cc(NS(=O)(=O)c2ccc(N)cc2)cc(C(=O)OC)c1
inactive: dose: 100.0 mg/kg/injection, schedule: Q01DX001 (ip), vehicle: saline 93 % of control | dose: 200.0 mg/kg/injection, schedule: Q01DX001 (ip), vehicle: saline 95 % of control | dose: 400.0 mg/kg/injection, schedule: Q01DX001 (ip), vehicle: saline 97 % of control
